Source: PMC7419507, “In vitro Cas9-assisted editing of modular polyketide synthase genes to produce desired natural product derivatives” (Nature Communications, 2020)
Values joined by “and” are separate entries in the source; they are usually repeats but may differ in a detail not shown here. Equal values may be shown once.

What was measured:
[1] = test system: human ovarian adenocarcinoma SKOV-3 cells; test: Cytotoxicity assay (CellTiter-Glo, 72 h), SKOV-3; assay type: cell-based; settings: conc 50 uM; raw replicate data
Procedure, shortened: (§1)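 Following 4 h attachment at 1000 cells/well, the three lines received serially halved compound doses (DMSO 0.5%) for 72 h at 37 °C under 5% CO2, with cell viability then determined by CellTiter-Glo.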

[2] = Cytotoxicity assay (CellTiter-Glo, 72 h), SKOV-3; assay type: cell-based, human; settings: human, raw replicate data, read-out: SKOV3 viability (%)
Procedure, shortened: as §1

[3] = test system: malignant pleural mesothelioma MESO-1 cells; test: Cytotoxicity assay (CellTiter-Glo, 72 h), MESO-1; assay type: cell-based; settings: raw replicate data
Procedure, shortened: as §1

[4] = Cytotoxicity assay (CellTiter-Glo, 72 h), MESO-1; assay type: cell-based; settings: human, MESO-1 malignant pleural mesothelioma cells, raw replicate data, read-out: MESO1 viability (%)
Procedure, shortened: as §1

**Q.** With COC1CC2CCC(C)C(O)(O2)C(=O)C(=O)N2CCCCC2C(=O)OC(C(C)CC2CCC(O)C(OC)C2)CC(=O)C(C)C=C(C)C(O)C(OC)C(=O)C(C)CC(C)C=CCCC=C1C (stereo not drawn) [Compound 15, 19,20-dihidro-rapamycin] as the compound, how does the “SKOV3 viability (%)” value [1] read?
**A.** 3.9% and 4.5%

**Q.** What about the viability at 72 h, 9.53674e-05 uM ([2]; SKOV-3 cells (ovarian adenocarcinoma), conc 9.53674e-5 uM) of the same compound?
**A.** 106%

**Q.** And the viability at 72 h, 0.000190735 uM ([2]; SKOV-3 cells (ovarian adenocarcinoma), conc 0.000190735 uM)?
**A.** 101%

**Q.** What about the viability at 72 h, 0.00038147 uM ([2]; SKOV-3 cells (ovarian adenocarcinoma), conc 0.00038147 uM) of the same compound?
**A.** 102%

**Q.** What about the viability at 72 h, 0.000762939 uM ([2]; SKOV-3 cells (ovarian adenocarcinoma), conc 0.000762939 uM) of the same compound?
**A.** 102%

**Q.** What about the viability at 72 h, 0.00152588 uM ([2]; SKOV-3 cells (ovarian adenocarcinoma), conc 0.00152588 uM) of the same compound?
**A.** 105%

**Q.** What about the viability at 72 h, 0.00305176 uM ([2]; SKOV-3 cells (ovarian adenocarcinoma), conc 0.00305176 uM) of the same compound?
**A.** 108%

**Q.** What about the viability at 72 h, 0.00610352 uM ([2]; SKOV-3 cells (ovarian adenocarcinoma), conc 0.00610352 uM) of the same compound?
**A.** 104%

**Q.** What about the viability at 72 h, 0.012207 uM ([2]; SKOV-3 cells (ovarian adenocarcinoma), conc 0.012207 uM) of the same compound?
**A.** 106%

**Q.** And the viability at 72 h, 0.0244141 uM ([2]; SKOV-3 cells (ovarian adenocarcinoma), conc 0.0244141 uM)?
**A.** 102%

**Q.** And the viability at 72 h, 0.0488281 uM ([2]; SKOV-3 cells (ovarian adenocarcinoma), conc 0.0488281 uM)?
**A.** 95.2%

**Q.** And the viability at 72 h, 0.0976562 uM ([2]; SKOV-3 cells (ovarian adenocarcinoma), conc 0.0976562 uM)?
**A.** 99.4%

**Q.** What about the viability at 72 h, 0.195312 uM ([2]; SKOV-3 cells (ovarian adenocarcinoma), conc 0.195312 uM) of the same compound?
**A.** 91%

**Q.** And the viability at 72 h, 0.390625 uM ([2]; SKOV-3 cells (ovarian adenocarcinoma), conc 0.390625 uM)?
**A.** 84.3%

**Q.** What about the viability at 72 h, 12.5 uM ([2]; SKOV-3 cells (ovarian adenocarcinoma), conc 12.5 uM) of the same compound?
**A.** 63.5%

**Q.** What about the viability at 72 h, 25 uM ([2]; SKOV-3 cells (ovarian adenocarcinoma), conc 25 uM) of the same compound?
**A.** 51.1%

**Q.** What about the viability at 72 h, 50 uM ([2]; SKOV-3 cells (ovarian adenocarcinoma), conc 50 uM) of the same compound?
**A.** 4%

**Q.** What about the viability at 72 h, 0.78125 uM ([2]; SKOV-3 ovarian adenocarcinoma cells, conc 0.78125 uM) of the same compound?
**A.** 77.1%

**Q.** What about the viability at 72 h, 1.5625 uM ([2]; SKOV-3 ovarian adenocarcinoma cells, conc 1.5625 uM) of the same compound?
**A.** 85.7%

**Q.** And the viability at 72 h, 3.125 uM ([2]; SKOV-3 ovarian adenocarcinoma cells, conc 3.125 uM)?
**A.** 72.5%

**Q.** And the viability at 72 h, 6.25 uM ([2]; SKOV-3 ovarian adenocarcinoma cells, conc 6.25 uM)?
**A.** 65.8%

**Q.** What about the “MESO1 viability (%)” value ([3]; conc 9.53674e-5 uM) of the same compound?
**A.** 97.4% and 107.3%

**Q.** And the “MESO1 viability (%)” value ([3]; conc 0.000190735 uM)?
**A.** 96.0% and 92.6%

**Q.** And the “MESO1 viability (%)” value ([3]; conc 0.00038147 uM)?
**A.** 101.5% and 100.0%

**Q.** And the “MESO1 viability (%)” value ([3]; conc 0.000762939 uM)?
**A.** 86.7% and 94.3%

**Q.** And the “MESO1 viability (%)” value ([3]; conc 0.00152588 uM)?
**A.** 92.8% and 93.2%

**Q.** And the “MESO1 viability (%)” value ([3]; conc 0.00305176 uM)?
**A.** 90.6%

**Q.** And the “MESO1 viability (%)” value ([3]; conc 0.00610352 uM)?
**A.** 91.6% and 97.1%

**Q.** What about the “MESO1 viability (%)” value ([3]; conc 0.012207 uM) of the same compound?
**A.** 80.5%

**Q.** What about the “MESO1 viability (%)” value ([3]; conc 0.0244141 uM) of the same compound?
**A.** 89.5% and 86.4%

**Q.** And the “MESO1 viability (%)” value ([3]; conc 0.0488281 uM)?
**A.** 83.3% and 88.8%

**Q.** What about the “MESO1 viability (%)” value ([3]; conc 0.0976562 uM) of the same compound?
**A.** 82.7% and 83.7%

**Q.** What about the “MESO1 viability (%)” value ([3]; conc 0.195312 uM) of the same compound?
**A.** 70.8% and 80.6%

**Q.** And the “MESO1 viability (%)” value ([3]; conc 0.390625 uM)?
**A.** 69.4% and 71.4%

**Q.** And the “MESO1 viability (%)” value ([3]; conc 0.78125 uM)?
**A.** 68.2% and 67.7%

**Q.** What about the “MESO1 viability (%)” value ([3]; conc 1.5625 uM) of the same compound?
**A.** 70.1% and 68.2%

**Q.** What about the “MESO1 viability (%)” value ([3]; conc 3.125 uM) of the same compound?
**A.** 66.5%

**Q.** What about the “MESO1 viability (%)” value ([3]; conc 6.25 uM) of the same compound?
**A.** 67.5% and 68.1%

**Q.** What about the “MESO1 viability (%)” value ([3]; conc 12.5 uM) of the same compound?
**A.** 65.8% and 62.8%

**Q.** And the “MESO1 viability (%)” value ([3]; conc 25 uM)?
**A.** 15.9% and 37.2% and 39.7%

**Q.** And the “MESO1 viability (%)” value ([3]; conc 50 uM)?
**A.** 0.367% and 0.476%

**Q.** What about the viability at 72 h, 9.53674e-05 uM ([4]; conc 9.53674e-5 uM) of the same compound?
**A.** 94.1%

**Q.** What about the viability at 72 h, 0.000190735 uM ([4]; conc 0.000190735 uM) of the same compound?
**A.** 92%

**Q.** And the viability at 72 h, 0.00038147 uM ([4]; conc 0.00038147 uM)?
**A.** 98.8%

**Q.** What about the viability at 72 h, 0.000762939 uM ([4]; conc 0.000762939 uM) of the same compound?
**A.** 93.3%

**Q.** And the viability at 72 h, 0.00152588 uM ([4]; conc 0.00152588 uM)?
**A.** 97.7%

**Q.** What about the viability at 72 h, 0.00305176 uM ([4]; conc 0.00305176 uM) of the same compound?
**A.** 89.3%

**Q.** And the viability at 72 h, 0.00610352 uM ([4]; conc 0.00610352 uM)?
**A.** 90.8%

**Q.** What about the viability at 72 h, 0.012207 uM ([4]; conc 0.012207 uM) of the same compound?
**A.** 87.6%

**Q.** What about the viability at 72 h, 0.0244141 uM ([4]; conc 0.0244141 uM) of the same compound?
**A.** 92.1%

**Q.** What about the viability at 72 h, 0.0488281 uM ([4]; conc 0.0488281 uM) of the same compound?
**A.** 82.9%

**Q.** And the viability at 72 h, 0.0976562 uM ([4]; conc 0.0976562 uM)?
**A.** 81.6%

**Q.** What about the viability at 72 h, 0.195312 uM ([4]; conc 0.195312 uM) of the same compound?
**A.** 70.6%

**Q.** What about the viability at 72 h, 0.390625 uM ([4]; conc 0.390625 uM) of the same compound?
**A.** 78.2%

**Q.** And the viability at 72 h, 0.78125 uM ([4]; conc 0.78125 uM)?
**A.** 66.4%

**Q.** And the viability at 72 h, 1.5625 uM ([4]; conc 1.5625 uM)?
**A.** 69.2%

**Q.** And the viability at 72 h, 3.125 uM ([4]; conc 3.125 uM)?
**A.** 67.6%

**Q.** And the viability at 72 h, 6.25 uM ([4]; conc 6.25 uM)?
**A.** 68.9%

**Q.** And the viability at 72 h, 12.5 uM ([4]; conc 12.5 uM)?
**A.** 63.9%

**Q.** What about the viability at 72 h, 50 uM ([4]; conc 50 uM) of the same compound?
**A.** 0.6%
